Measured values from US9695155B2, “Herbicidal substituted pyrimidinyloxy benzene compounds” (E. I. DU PONT DE NEMOURS AND COMPANY, priority 2013, dated 2017).
Read-outs that look alike come from different tables or passages of the source.

How the values were obtained:
lambsquarters = assay: Test C preemergence; assay type: in vivo, Chenopodium album; conditions: Chenopodium album, pre-emergence; for pest or weed control at 62 g/ha: 62 g ai/ha; for pest or weed control at 125 g/ha: 125 g ai/ha
Outline: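 Seeds were sown in loam–sand blend and sprayed preemergence, while plants at 1- to 4-leaf stage (2–18 cm) in peat-based medium received postemergence sprays; test chemicals were formulated in a non-phytotoxic solvent with surfactant. After 13–15 days in a greenhouse, injury was rated visually against controls, 0 (no effect) to 100 (complete control).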

arrowleaf sida = assay: Test E postemergence; assay type: in vivo, Sida rhombifolia
Outline: (§1)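 Compound in a non-phytotoxic solvent mixture with surfactant was applied preemergence to seeds in silt loam soil, or postemergence to plants 2 to 18 cm tall grown in peat-based potting medium. Plants were kept in a greenhouse for 14 to 21 days, then rated visually against untreated controls on a 0 (no effect) to 100 (complete control) scale.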

[1] = system: waterhemp_RES2 (ALS & HPPD resistant common waterhemp); assay: Test E postemergence; assay type: in vivo, Amaranthus rudis; conditions: for pest or weed control at 31 g/ha / pest or weed control at 62 g/ha / pest or weed control at 125 g/ha / pest or weed control at 16 g/ha: Amaranthus tuberculatus, post-emergence, read-out: Plant response rating, Waterhemp_RES2
Outline: as §1

waterhemp = assay: Test E postemergence; assay type: in vivo, Amaranthus rudis
Outline: as §1

[2] = system: waterhemp_RES1 (ALS & Triazine resistant common waterhemp); assay: Test E postemergence; assay type: in vivo, Amaranthus rudis
Outline: as §1

[3] = preemergence, scale 0 (no effect) to 100 (complete control), read-out: Lambsquarters plant response rating
[4] = Sida rhombifolia, post-emergence, Postemergence, 31 g ai/ha, scale 0 to 100, read-out: Plant response rating, Arrowleaf Sida
[5] = Sida rhombifolia, post-emergence, Postemergence, 62 g ai/ha, scale 0 to 100, read-out: Plant response rating, Arrowleaf Sida
[6] = Sida rhombifolia, post-emergence, Postemergence, 125 g ai/ha, scale 0 to 100, read-out: Plant response rating, Arrowleaf Sida
[7] = Sida rhombifolia, post-emergence, postemergence, 16 g ai/ha, scale 0 to 100, 0 no effect, 100 complete control, read-out: Plant response rating, Arrowleaf Sida
[8] = Postemergence, 31 g ai/ha, scale 0 to 100
[9] = Postemergence, 62 g ai/ha, scale 0 to 100
[10] = Postemergence, 125 g ai/ha, scale 0 to 100
[11] = postemergence, 16 g ai/ha, scale 0 to 100, 0 no effect, 100 complete control
[12] = Amaranthus tuberculatus, post-emergence, Postemergence, 31 g ai/ha, scale 0 to 100, read-out: Plant response rating, Waterhemp
[13] = Amaranthus tuberculatus, post-emergence, Postemergence, 62 g ai/ha, scale 0 to 100, read-out: Plant response rating, Waterhemp
[14] = Amaranthus tuberculatus, post-emergence, Postemergence, 125 g ai/ha, scale 0 to 100, read-out: Plant response rating, Waterhemp
[15] = Amaranthus tuberculatus, post-emergence, postemergence, 16 g ai/ha, scale 0 to 100, 0 no effect, 100 complete control, read-out: Plant response rating, Waterhemp
[16] = postemergence, 8 g ai/ha, scale 0 to 100, 0 no effect, 100 complete control

Compound	pest or weed control at 125 g/ha (lambsquarters; [3]) [%]	pest or weed control at 31 g/ha (arrowleaf sida; [4]) [%]	pest or weed control at 62 g/ha (arrowleaf sida; [5]) [%]	Plant response rating, Waterhemp_RES1 [2, 8]	Plant response rating, Waterhemp_RES1 [2, 9]	Plant response rating, Waterhemp_RES1 [2, 10]	Plant response rating, Waterhemp_RES1 [2, 11]	Plant response rating, Arrowleaf Sida (arrowleaf sida; [8])	Plant response rating, Arrowleaf Sida (arrowleaf sida; [9])	Plant response rating, Arrowleaf Sida (arrowleaf sida; [10])	Plant response rating, Arrowleaf Sida (arrowleaf sida; [11])	Plant response rating, Waterhemp_RES2 [1, 8]	Plant response rating, Waterhemp_RES2 [1, 9]	Plant response rating, Waterhemp_RES2 [1, 10]	Plant response rating, Waterhemp_RES2 [1, 11]	Plant response rating, Waterhemp (waterhemp; [8])	Plant response rating, Waterhemp (waterhemp; [9])	Plant response rating, Waterhemp (waterhemp; [10])	Plant response rating, Waterhemp (waterhemp; [11])	Plant response rating, Waterhemp_RES1 [2, 16]	other results
N#Cc1cccc(Oc2ncc(F)cn2)c1-n1cc(C(F)(F)F)cn1 [Compound 79, 3-[(5-fluoro-2-pyrimidinyl)oxy]-2-[4-(trifluoromethyl)-1H-pyrazol-1-yl]benzonitrile]	100	75	85	60	75	100	40	–	–	–	–	–	–	–	–	–	–	–	–	–	pest or weed control at 62 g/ha (lambsquarters; [3]): 100%; pest or weed control at 250 g/ha (lambsquarters; 250 g ai/ha, preemergence, scale 0 (no effect) to 100 (complete control), read-out: Lambsquarters plant response rating): 100%; pest or weed control at 31 g/ha (lambsquarters; Preemergence, 31 g ai/ha, scale 0 to 100, 0 no effect, 100 complete control, read-out: Plant response rating, Lambsquarters): 100%; pest or weed control at 125 g/ha (arrowleaf sida; [6]): 98%; pest or weed control at 16 g/ha (arrowleaf sida; [7]): 65%; pest or weed control at 31 g/ha [1, 8]: 80%; pest or weed control at 62 g/ha [1, 9]: 90%; pest or weed control at 125 g/ha [1, 10]: 95%; pest or weed control at 16 g/ha [1, 11]: 75%; pest or weed control at 31 g/ha (waterhemp; [12]): 90%; pest or weed control at 62 g/ha (waterhemp; [13]): 85%; pest or weed control at 125 g/ha (waterhemp; [14]): 100%; pest or weed control at 16 g/ha (waterhemp; [15]): 70%
Clc1cnc(Oc2cccc(Cl)c2-n2cc(I)cn2)nc1 [Compound 181]	–	–	–	95	90	95	90	75	70	95	60	95	98	100	85	95	95	98	65	–	–
FC(F)(F)c1cnn(-c2c(Br)cccc2Oc2ncc(Cl)cn2)c1 [Compound 191]	–	–	–	80	90	95	70	70	70	100	60	95	95	100	90	90	90	95	70	50	Plant response rating, Arrowleaf Sida (arrowleaf sida; [16]): 50; Plant response rating, Waterhemp (waterhemp; [16]): 60
Clc1cnc(Oc2ccccc2-n2cc(Br)nn2)nc1 [Compound 223]	–	–	–	80	70	95	60	70	80	90	60	80	80	95	75	70	85	98	50	30	Plant response rating, Arrowleaf Sida (arrowleaf sida; [16]): 50; Plant response rating, Waterhemp (waterhemp; [16]): 60
N#Cc1cccc(Oc2ncc(Cl)cn2)c1-n1cc(OCC(F)(F)F)cn1 [Compound 274, 3-[(5-chloro-2-pyrimidinyl)oxy]-2-[4-(2,2,2-trifluoroethoxy)-1H-pyrazol-1-yl]benzonitrile]	98	60	75	80	90	100	75	–	–	–	–	–	–	–	–	–	–	–	–	60	pest or weed control at 16 g/ha (lambsquarters; 16 g ai/ha, preemergence, scale 0 to 100 (0 no effect, 100 complete control), read-out: Lambsquarters plant response rating): 100%; pest or weed control at 62 g/ha (lambsquarters; Preemergence, scale 0 to 100, 0 no effect, 100 complete control, read-out: Plant response rating, Lambsquarters): 100%; pest or weed control at 125 g/ha (arrowleaf sida; [6]): 85%; pest or weed control at 8 g/ha (arrowleaf sida; Sida rhombifolia, post-emergence, postemergence, 8 g ai/ha, scale 0 to 100, 0 no effect, 100 complete control, read-out: Plant response rating, Arrowleaf Sida): 55%; pest or weed control at 16 g/ha (arrowleaf sida; [7]): 75%; pest or weed control at 31 g/ha [1, 8]: 85%; pest or weed control at 62 g/ha [1, 9]: 95%; pest or weed control at 125 g/ha [1, 10]: 100%; pest or weed control at 16 g/ha [1, 11]: 80%; pest or weed control at 31 g/ha (waterhemp; [12]): 90%; pest or weed control at 62 g/ha (waterhemp; [13]): 95%; pest or weed control at 125 g/ha (waterhemp; [14]): 98%; pest or weed control at 8 g/ha (waterhemp; Amaranthus tuberculatus, post-emergence, postemergence, 8 g ai/ha, scale 0 to 100, 0 no effect, 100 complete control, read-out: Plant response rating, Waterhemp): 70%; pest or weed control at 16 g/ha (waterhemp; [15]): 95%
